What all share (test): SelectScreen kinase specificity survey
Common to all, as to assay type: biochemical
Holding throughout (details): estimated, abridged dose response curve, read-out: Kinase inhibitory activity EC50

Test [1] addresses T1, SRC N1 (Homo sapiens, UniProt P12931).
T1 construct: purchased Invitrogen (SelectScreen)
In short, it runs like this: (§1)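 Specificity was surveyed across 230 kinases using kinase-matched substrate/optical reporter pairs and 100 micromolar ATP. EC50 comes from a 4-parameter Hill fit of an abridged curve.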

For test [2], the target named is T2, NEK6 (Homo sapiens, UniProt Q9HC98).
T2 construct: purchased Invitrogen, Inc. (SelectScreen service)
In short, it runs like this: as §1

Test [3] has as its target T3, RAF1 (cRAF) Y340D Y341D (Homo sapiens, UniProt P04049, Y340D/Y341D).
T3 construct: purchased Invitrogen, Inc. (SelectScreen platform)
The method in brief: as §1

The target of test [4] is T4, ABL1 (Homo sapiens, UniProt P00519).
T4 construct: purchased Invitrogen (SelectScreen platform)
The method in brief:
as §1

The target of test [5] is T5, LYN B (Homo sapiens, UniProt P07948).
T5 construct: purchased Invitrogen (SelectScreen)
In short, it runs like this:
as §1

For test [6], the target named is T6, PRKD1 (PKC mu, PKD1) (Homo sapiens, UniProt Q15139).
T6 construct: purchased Invitrogen, Inc. (SelectScreen platform)
In short, it runs like this: as §1

The target in test [7] is T7, PDGFRA D842V (Homo sapiens, UniProt P16234, D842V).
T7 construct: purchased Invitrogen (SelectScreen platform)
The method in brief:
as §1

The target in test [8] is T8, CSNK2A2 (CK2 alpha 2) (Homo sapiens, UniProt P19784).
T8 construct: purchased Invitrogen, Inc. (SelectScreen service)
In short, it runs like this:
as §1

Test [9] concerns the target T9, FLT3 D835Y (Homo sapiens, UniProt P36888, D835Y).
T9 construct: purchased Invitrogen (SelectScreen platform)
T9 sequence (P36888 27-993 D835Y): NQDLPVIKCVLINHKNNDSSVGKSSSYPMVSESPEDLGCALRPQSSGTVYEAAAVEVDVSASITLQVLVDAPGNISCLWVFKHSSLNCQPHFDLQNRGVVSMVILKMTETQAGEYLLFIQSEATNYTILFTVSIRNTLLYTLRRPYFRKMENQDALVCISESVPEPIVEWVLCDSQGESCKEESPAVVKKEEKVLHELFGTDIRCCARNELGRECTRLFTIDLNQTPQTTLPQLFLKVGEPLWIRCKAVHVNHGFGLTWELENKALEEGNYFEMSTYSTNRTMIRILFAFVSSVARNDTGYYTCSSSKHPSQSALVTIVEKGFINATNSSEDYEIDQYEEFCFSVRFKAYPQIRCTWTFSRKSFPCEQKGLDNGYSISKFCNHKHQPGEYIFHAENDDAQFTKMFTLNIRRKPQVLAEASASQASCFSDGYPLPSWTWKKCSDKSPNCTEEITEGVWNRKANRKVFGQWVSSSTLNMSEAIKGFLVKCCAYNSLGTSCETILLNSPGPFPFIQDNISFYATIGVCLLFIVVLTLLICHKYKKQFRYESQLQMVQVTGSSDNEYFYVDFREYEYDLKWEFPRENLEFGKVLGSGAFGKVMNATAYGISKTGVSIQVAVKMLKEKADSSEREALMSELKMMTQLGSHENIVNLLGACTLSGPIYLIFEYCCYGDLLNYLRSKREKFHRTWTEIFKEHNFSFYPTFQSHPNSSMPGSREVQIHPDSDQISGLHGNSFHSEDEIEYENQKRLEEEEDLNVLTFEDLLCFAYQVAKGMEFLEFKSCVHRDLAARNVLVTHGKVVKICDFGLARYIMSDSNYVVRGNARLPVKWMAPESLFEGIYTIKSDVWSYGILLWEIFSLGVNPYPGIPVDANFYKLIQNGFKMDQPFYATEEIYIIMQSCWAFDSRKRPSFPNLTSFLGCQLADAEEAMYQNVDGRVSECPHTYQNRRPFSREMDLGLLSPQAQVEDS
In short, it runs like this: as §1

Test [10] addresses T10, INSR (Homo sapiens, UniProt P06213).
T10 construct: purchased Invitrogen (SelectScreen platform)
The method in brief:
as §1

The target in test [11] is T11, FRK (PTK5) (Homo sapiens, UniProt P42685).
T11 construct: purchased Invitrogen (SelectScreen)
The method in brief:
as §1

The target of test [12] is T12, MST1R (RON) (Homo sapiens, UniProt Q04912).
T12 construct: purchased Invitrogen (SelectScreen platform)
In short, it runs like this: as §1

The target in test [13] is T13, HIPK1 (Myak) (Homo sapiens, UniProt Q86Z02).
T13 construct: purchased Invitrogen (SelectScreen platform)
In short, it runs like this: as §1

For two compounds, EC50 results are on record in patent US20100292231A1, “Indazole Compounds for Treating Inflammatory Disorders, Demyelinating Disorders and Cancers” (priority 2007, published 2010).

Structures are written as SMILES.

T7 sequence (P16234 24-1089 D842V): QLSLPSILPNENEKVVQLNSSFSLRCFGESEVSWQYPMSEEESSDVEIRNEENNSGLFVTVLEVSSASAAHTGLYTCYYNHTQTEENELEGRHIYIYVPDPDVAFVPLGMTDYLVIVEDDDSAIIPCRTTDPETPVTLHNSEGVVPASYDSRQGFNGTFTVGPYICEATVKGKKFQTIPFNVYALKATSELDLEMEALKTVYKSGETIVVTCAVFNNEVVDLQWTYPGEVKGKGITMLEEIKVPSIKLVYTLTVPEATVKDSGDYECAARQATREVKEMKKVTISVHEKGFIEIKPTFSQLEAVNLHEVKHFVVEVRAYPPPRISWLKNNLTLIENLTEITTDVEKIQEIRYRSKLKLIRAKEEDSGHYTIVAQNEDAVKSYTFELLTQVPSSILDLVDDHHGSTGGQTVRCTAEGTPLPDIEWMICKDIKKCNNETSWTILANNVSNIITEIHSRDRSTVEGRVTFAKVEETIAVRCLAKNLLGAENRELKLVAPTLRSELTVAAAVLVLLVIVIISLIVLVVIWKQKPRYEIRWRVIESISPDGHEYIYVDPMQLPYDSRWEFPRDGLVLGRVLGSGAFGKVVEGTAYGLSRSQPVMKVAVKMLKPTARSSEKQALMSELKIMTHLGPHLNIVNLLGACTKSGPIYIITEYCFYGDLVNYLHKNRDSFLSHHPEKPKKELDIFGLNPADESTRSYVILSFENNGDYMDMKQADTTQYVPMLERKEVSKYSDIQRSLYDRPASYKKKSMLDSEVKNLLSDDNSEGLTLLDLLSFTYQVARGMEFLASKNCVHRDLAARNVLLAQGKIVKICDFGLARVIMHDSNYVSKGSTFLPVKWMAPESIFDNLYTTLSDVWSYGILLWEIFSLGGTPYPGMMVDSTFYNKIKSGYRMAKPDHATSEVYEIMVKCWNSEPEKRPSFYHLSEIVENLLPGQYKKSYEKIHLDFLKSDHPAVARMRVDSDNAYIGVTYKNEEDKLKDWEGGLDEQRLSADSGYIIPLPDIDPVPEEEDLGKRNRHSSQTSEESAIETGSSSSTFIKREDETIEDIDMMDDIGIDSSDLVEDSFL
T13 sequence (Q86Z02 whole entry): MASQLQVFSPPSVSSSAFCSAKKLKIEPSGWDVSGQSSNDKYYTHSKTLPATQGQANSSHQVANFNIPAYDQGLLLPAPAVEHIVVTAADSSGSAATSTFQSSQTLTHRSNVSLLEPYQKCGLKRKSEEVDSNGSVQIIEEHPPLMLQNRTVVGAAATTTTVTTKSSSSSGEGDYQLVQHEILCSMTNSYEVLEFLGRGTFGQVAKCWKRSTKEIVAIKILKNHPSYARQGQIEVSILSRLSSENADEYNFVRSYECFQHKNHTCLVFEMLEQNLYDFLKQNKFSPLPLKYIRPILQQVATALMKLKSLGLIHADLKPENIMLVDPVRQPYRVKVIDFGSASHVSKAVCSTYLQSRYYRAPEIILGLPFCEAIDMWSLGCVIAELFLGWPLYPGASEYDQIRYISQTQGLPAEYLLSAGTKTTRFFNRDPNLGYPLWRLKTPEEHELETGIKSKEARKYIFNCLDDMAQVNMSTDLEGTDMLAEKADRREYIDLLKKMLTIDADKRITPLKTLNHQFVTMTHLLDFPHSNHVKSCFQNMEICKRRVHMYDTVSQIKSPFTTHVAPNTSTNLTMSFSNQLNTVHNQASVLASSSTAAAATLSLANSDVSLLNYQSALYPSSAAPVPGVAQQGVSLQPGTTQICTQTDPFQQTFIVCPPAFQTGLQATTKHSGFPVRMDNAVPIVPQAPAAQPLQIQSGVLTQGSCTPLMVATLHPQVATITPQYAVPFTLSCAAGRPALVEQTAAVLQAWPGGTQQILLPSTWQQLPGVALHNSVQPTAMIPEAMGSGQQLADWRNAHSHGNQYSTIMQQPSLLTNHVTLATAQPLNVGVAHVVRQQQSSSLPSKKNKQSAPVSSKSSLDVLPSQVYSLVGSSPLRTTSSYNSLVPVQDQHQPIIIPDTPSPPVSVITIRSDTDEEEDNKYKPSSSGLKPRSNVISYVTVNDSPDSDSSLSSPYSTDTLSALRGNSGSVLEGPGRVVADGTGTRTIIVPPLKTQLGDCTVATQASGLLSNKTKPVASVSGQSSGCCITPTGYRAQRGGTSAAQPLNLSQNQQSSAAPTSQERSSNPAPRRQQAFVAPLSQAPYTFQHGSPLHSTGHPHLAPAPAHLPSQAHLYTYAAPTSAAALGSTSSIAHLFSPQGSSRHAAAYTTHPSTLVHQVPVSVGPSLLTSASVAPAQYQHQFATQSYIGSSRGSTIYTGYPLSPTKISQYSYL
T2 sequence (Q9HC98 whole entry): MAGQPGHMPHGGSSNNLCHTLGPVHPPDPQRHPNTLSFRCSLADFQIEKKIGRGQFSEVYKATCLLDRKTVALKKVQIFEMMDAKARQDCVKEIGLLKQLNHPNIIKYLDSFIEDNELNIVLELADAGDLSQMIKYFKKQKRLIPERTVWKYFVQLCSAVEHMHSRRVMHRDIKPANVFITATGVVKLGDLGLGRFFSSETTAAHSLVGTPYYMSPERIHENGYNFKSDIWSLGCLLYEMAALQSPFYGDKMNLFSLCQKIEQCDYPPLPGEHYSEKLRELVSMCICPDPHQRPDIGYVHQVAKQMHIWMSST
T10 sequence (P06213 28-1382): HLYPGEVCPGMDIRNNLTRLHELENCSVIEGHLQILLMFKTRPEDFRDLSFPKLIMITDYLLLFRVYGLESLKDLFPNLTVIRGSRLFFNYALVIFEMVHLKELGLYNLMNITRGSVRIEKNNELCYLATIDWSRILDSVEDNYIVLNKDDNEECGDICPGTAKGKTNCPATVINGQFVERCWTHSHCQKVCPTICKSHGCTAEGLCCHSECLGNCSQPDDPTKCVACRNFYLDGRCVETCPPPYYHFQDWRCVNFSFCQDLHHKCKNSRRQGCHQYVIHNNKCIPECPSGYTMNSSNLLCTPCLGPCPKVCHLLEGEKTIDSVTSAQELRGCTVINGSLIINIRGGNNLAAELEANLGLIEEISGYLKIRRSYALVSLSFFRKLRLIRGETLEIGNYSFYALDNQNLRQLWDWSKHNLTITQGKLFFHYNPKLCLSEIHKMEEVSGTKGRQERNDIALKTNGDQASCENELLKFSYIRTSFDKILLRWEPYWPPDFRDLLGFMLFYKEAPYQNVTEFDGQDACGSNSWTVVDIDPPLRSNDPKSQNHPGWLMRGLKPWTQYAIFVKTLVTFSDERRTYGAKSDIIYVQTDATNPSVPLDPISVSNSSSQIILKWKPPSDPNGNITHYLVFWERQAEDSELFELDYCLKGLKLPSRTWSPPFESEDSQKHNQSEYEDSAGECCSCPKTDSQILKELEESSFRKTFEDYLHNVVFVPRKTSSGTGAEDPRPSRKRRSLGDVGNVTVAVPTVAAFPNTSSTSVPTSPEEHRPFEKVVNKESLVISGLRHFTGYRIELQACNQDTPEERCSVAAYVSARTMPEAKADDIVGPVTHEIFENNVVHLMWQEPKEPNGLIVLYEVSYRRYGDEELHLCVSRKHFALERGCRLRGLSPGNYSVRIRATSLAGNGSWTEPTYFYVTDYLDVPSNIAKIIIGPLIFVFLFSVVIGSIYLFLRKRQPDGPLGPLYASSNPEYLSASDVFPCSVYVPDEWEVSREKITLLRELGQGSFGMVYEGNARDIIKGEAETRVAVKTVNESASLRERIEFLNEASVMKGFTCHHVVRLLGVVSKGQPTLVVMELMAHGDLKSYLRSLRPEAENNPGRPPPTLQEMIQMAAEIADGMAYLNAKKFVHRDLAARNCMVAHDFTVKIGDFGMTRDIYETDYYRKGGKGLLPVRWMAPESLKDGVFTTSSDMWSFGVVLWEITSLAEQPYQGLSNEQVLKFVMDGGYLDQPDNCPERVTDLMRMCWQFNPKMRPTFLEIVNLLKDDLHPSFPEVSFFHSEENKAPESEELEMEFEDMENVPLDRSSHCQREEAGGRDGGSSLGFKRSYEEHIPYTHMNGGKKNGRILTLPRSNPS
T4 sequence (P00519 whole entry): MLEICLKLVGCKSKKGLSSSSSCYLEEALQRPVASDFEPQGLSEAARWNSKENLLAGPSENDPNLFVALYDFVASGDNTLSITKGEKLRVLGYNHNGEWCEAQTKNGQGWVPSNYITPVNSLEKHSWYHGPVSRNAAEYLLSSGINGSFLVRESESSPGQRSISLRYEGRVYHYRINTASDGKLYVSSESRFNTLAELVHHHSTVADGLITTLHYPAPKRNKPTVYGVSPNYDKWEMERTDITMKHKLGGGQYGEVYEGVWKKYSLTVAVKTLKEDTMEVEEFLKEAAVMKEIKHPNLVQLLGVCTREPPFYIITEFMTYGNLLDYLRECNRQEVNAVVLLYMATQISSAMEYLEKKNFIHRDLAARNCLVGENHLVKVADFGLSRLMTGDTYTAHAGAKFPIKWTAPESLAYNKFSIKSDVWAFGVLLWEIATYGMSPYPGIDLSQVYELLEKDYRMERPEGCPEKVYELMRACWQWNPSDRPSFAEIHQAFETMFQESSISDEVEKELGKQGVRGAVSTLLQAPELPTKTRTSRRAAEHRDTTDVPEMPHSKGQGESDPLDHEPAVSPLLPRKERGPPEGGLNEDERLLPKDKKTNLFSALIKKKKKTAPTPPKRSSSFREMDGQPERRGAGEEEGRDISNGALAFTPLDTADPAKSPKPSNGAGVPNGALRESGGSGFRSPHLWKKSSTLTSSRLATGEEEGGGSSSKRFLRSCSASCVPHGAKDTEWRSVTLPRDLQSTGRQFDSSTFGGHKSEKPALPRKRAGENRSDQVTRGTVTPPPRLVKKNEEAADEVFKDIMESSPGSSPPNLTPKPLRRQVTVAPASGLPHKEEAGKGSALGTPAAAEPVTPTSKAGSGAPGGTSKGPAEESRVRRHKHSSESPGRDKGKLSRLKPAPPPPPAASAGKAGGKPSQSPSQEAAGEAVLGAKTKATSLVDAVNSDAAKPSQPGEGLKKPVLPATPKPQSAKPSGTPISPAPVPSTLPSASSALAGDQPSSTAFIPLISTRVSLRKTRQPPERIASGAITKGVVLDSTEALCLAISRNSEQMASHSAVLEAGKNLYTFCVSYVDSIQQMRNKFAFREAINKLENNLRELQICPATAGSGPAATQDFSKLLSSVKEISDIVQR

One may read the EC50 as the concentration giving half of the maximal effect. With `CN(C)CCCNc1ccc2ncn3c4ccc5[nH]ncc5c4c(=O)c1c23` [Compound (IV)], the EC50 in test [1] is 511 nM; in [2], more than 5000 nM; in test [3], more than 5000 nM; in test [4], 3780 nM; in test [5] it was 426 nM; in test [6] it was 494 nM. Also, the EC50 in [7] is 370 nM; in test [8] it was more than 5000 nM; in test [9] it was 1 nM; in [10], 2400 nM; in test [11], 389 nM; in [12], more than 5000 nM. Also, in [13], the EC50 is 1210 nM.
Turning to `CCN(CC)CCNc1ccc2ncn3c4ccc(O)cc4c(=O)c1c23` [Symadex, 5-(2-(diethylamino)ethylamino)-8-hydroxy-6H-imidazo[4,5,1-de]acridin-6-one, reference compound], the EC50 in [1] was 3150 nM; in [2], more than 5000 nM; in test [3], more than 5000 nM; in [4], more than 5000 nM; in test [5] it was 812 nM; in test [6], 217 nM. Further, the EC50 in test [7] is 1060 nM; in test [8], 4800 nM; in test [9], 3 nM; in [10] it was more than 5000 nM; in test [11] it was 2110 nM; in test [12], more than 5000 nM. In addition, in test [13], the EC50 was more than 5000 nM.
